Reference: patent US7718385B2, “Bioactivation of alkylating agents for cancer treatment” (priority 2003, dated 2010)

Tests used:
HCT-116 = settings: HCT-116, Colon, cited from earlier work
OVCAR-5 = settings: OVCAR-5, Ovarian; cited from earlier work
KM12 = settings: KM12, Colon, cited from earlier work
DU-145 = settings: DU-145, Prostate, cited from earlier work
OVCAR-3 = settings: OVCAR-3, Ovarian, cited from earlier work
M14 = settings: M14, Melanoma, cited from earlier work
recombinant rat AOR = recombinant rat AOR (Rattus norvegicus, UniProt P97584, Q160G/Q263G/Q264G/Q276G)
Chain of recombinant rat AOR (P97584 whole entry Q160G/Q263G/Q264G/Q276G): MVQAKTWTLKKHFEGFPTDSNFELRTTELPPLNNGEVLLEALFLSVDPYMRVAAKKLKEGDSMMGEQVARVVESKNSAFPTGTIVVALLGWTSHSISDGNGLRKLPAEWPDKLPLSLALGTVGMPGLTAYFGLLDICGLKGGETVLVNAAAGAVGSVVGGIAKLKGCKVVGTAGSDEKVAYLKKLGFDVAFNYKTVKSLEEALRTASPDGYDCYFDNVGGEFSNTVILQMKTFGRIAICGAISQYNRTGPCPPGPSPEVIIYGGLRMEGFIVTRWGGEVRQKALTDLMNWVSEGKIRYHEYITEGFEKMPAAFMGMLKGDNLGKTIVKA
Protocol: Varied concentrations of illudin M were added to a 200 μl 0.5× phosphate buffered saline (PBS) solution containing 115 ng of AOR and 43.4 nmoles NADPH, and incubated for 1 minute at 37° C. Reactions were then extracted with ethyl acetate containing piperine (internal standard), dried under vacuum, resuspended in HPLC buffer A (60% acetonitrile: 40% water), and injected into a Hewlett-Packard 1050 HPLC system equipped with a Luna C18 column (Phenomenex Inc.). Metabolites were separated using buffer A at a flow rate of 1 ml/min and quantified using diode array detection at 205 nm and previously reported extinction coefficients (Tanaka, et al., 1990). Vmax and Km were calculated using the HYPER program.
Rates were quantified from metabolite peak areas using reported extinction coefficients (Tanaka, et al., 1990; McMorris, et al., 1999).

NCI-H460 = settings: NCI-H460, Non-Small Cell Lung; cited from earlier work
SNB-75 = settings: SNB-75, Central Nervous System, cited from earlier work
SK-MEL-28 = settings: SK-MEL-28, Melanoma, cited from earlier work
NCI-H23 = settings: NCI-H23, Non-Small Cell Lung, cited from earlier work
786-0 = settings: 786-0, Renal, cited from earlier work
SK-OV-3 = settings: SK-OV-3, Ovarian, cited from earlier work
[1] = Nonenzymatic reactivity of the 8,9-double bond with GSH (absorbance 330 nm); format: physicochemical; settings: 3.25 mM GSH, pH 7.4, 1 h, 30° C.
Source text: Reaction of the 8,9-double bond with GSH was followed spectrophotometrically at 330 nm.
The sulfhydryl group of GSH is a potent nucleophile that rapidly reacts with most electrophilic α,β-unsaturated carbonyl groups via a Michael-addition mechanism.

SK-MEL-2 = settings: SK-MEL-2, Melanoma, cited from earlier work
CAKI-1 = settings: CAKI-1, Renal, cited from earlier work
SR = settings: cited from earlier work
NCI-H226 = settings: NCI-H226, Non-Small Cell Lung, cited from earlier work
HOP-92 = settings: HOP-92, Non-Small Cell Lung, cited from earlier work
HCC-2998 = settings: HCC-2998, Colon, cited from earlier work

## CC1=C(CO)C2=C(C)C3(CC3)[C@@](C)(O)C(=O)C2=C1 [Irofulven, 6-hydroxymethylacylfulvene]
HCT-116
  GI50: 200 nM
  TGI: 5.01E−07
  log(GI50): −6.7
  log(LC50): −4.5
  log(TGI): −6.3
HCT-116; read-out: LC50
  CC50: 31600 nM
OVCAR-5
  GI50: 158 nM
  TGI: 5.01E−07
  log(GI50): −6.8
  log(LC50): −4.3
  log(TGI): −6.3
KM12
  GI50: 631 nM
  TGI: 2.51E−06
  log(GI50): −6.2
  log(LC50): −4.9
  log(TGI): −5.6
KM12; read-out: LC50
  CC50: 12600 nM
DU-145
  GI50: 100 nM
  TGI: 2.00E−07
  log(GI50): −7
  log(TGI): −6.7
DU-145; read-out: LC50
  CC50: ≥ 100000 nM
OVCAR-3
  GI50: 251 nM
  TGI: 6.31E−07
  log(GI50): −6.6
  log(TGI): −6.2
OVCAR-3; read-out: LC50
  CC50: ≥ 100000 nM
M14
  GI50: 251 nM
  TGI: 6.31E−07
  log(GI50): −6.6
  log(LC50): −5.7
  log(TGI): −6.2
M14; read-out: LC50
  CC50: 2000 nM
Recombinant rat AOR
  Vmax: 275 nmol/min/mg
Recombinant rat AOR; relative to the illudins
  decrease in the rate of metabolism by AOR: 100 fold
NCI-H460
  GI50: 50.1 nM
  TGI: 2.51E−07
  log(GI50): −7.3
  log(TGI): −6.6
SNB-75
  GI50: 200 nM
  TGI: 5.01E−07
  log(GI50): −6.7
  log(LC50): −5.7
  log(TGI): −6.3
SNB-75; read-out: LC50
  CC50: 2000 nM
SK-MEL-28
  GI50: 631 nM
  TGI: 1.58E−06
  log(GI50): −6.2
  log(LC50): −4.7
  log(TGI): −5.8
SK-MEL-28; read-out: LC50
  CC50: 20000 nM
NCI-H23
  GI50: 79.4 nM
  TGI: 3.16E−07
  log(GI50): −7.1
  log(LC50): −6.1
  log(TGI): −6.5
NCI-H23; read-out: LC50
  CC50: 794 nM
786-0
  GI50: 200 nM
  TGI: 5.01E−07
  log(GI50): −6.7
  log(LC50): −5.7
  log(TGI): −6.3
786-0; read-out: LC50
  CC50: 2000 nM
SK-OV-3
  GI50: 251 nM
  TGI: 1.00E−06
  log(GI50): −6.6
  log(LC50): −5
  log(TGI): −6
SK-OV-3; read-out: LC50
  CC50: 10000 nM
[1]
  reactivity of the α,β-unsaturated ketone with GSH: relatively resistant to nucleophilic attack
SK-MEL-2
  GI50: 200 nM
  TGI: 3.98E−07
  log(GI50): −6.7
  log(LC50): −6.2
  log(TGI): −6.4
SK-MEL-2; read-out: LC50
  CC50: 631 nM
CAKI-1
  GI50: 251 nM
  TGI: 7.94E−07
  log(GI50): −6.6
  log(LC50): −4.3
  log(TGI): −6.1
CAKI-1; read-out: LC50
  CC50: 50100 nM
SR; Leukemia
  GI50: 794 nM
  TGI: 1.00E−04
  log(GI50): −6.1
  log(TGI): −4
SR; read-out: LC50, Leukemia
  CC50: ≥ 100000 nM
NCI-H226
  GI50: 200 nM
  TGI: 5.01E−07
  log(GI50): −6.7
  log(LC50): −5.2
  log(TGI): −6.3
NCI-H226; read-out: LC50
  CC50: 6310 nM
HOP-92
  GI50: 316 nM
  TGI: 6.31E−07
  log(GI50): −6.5
  log(LC50): −4.6
  log(TGI): −6.2
HOP-92; read-out: LC50
  CC50: 25100 nM
HCC-2998
  GI50: 158 nM
  TGI: 3.16E−07
  log(GI50): −6.8
  log(LC50): −6.2
  log(TGI): −6.5
HCC-2998; read-out: LC50
  CC50: 631 nM
